Measurements published in US5204471A, “α-trifluoromethyl-substituted, saturated bicyclic amines” (Bayer Aktiengesellschaft, priority 1991, dated 1993).

What was measured:
HIV protease = target: T1, HIV protease (Human immunodeficiency virus type 1 group M subtype B, UniProt P04585); assay: HIV-specific protease enzyme test (cleavage of synthetic Gag peptide, RP HPLC); assay type: biochemical; conditions: purified HIV protease, HIV-1, synthetic peptide substrate; read-out: IC50 value (concentration causing 50% inhibition of the protease activity)
T1 construct: purified HIV protease
Method: HIV-specific protease enzyme test according to J. Hansen, S. Billich, T. Schulze, S. Sukrow and K. Molling, EMBO Journal, Vol. 7, No. 6, pages […] (1988).
This test was carried out by incubation of purified HIV protease with synthetic peptide which imitates a cleavage site in the Gag precursor protein and represents an in vivo cleavage point of the HIV protease. The resulting cleavage products of the synthetic peptide were analysed by reversed-phase high performance liquid chromatography (RP HPLC). The compound obtained according to Example 11 gave an IC50 value of 5×10^-8 with HIV-1. The IC50 value indicates the concentration of the substance causing 50% inhibition of the protease activity under the test conditions.

HIV = HIV test in a cell culture (syncytia formation in infected PBLs); assay type: cell-based; conditions: Human immunodeficiency virus 1, Lymphocyte, 72 h; HIV-infected normal human blood lymphocytes (PBLs), evaluated day 3 to 6 after infection; read-out: IC50 value (PBL), 50% suppression of virus-induced syncytia
Method: HIV test in a cell culture with slight modifications according to Pauwels et al., Journal of Virological Methods 20, pages 309-321 (1988).
Normal human blood lymphocytes (PBLs) were concentrated via Ficoll-Hypaque and stimulated with phytohaemagglutinin (90 μg/ml) and interleukin-2 (40 U/ml) in RPMI 1640, 20% fetal calf serum. For infection with the infectious HIV, the PBLs were pelletised, and the cell pellet was then suspended in 1 ml of HIV virus adsorption solution and incubated at 37° C. for 1 hour.
The virus adsorption solution was centrifuged, and the infected cell pellet was taken up in growth medium in such a manner that 1×10^5 cells were present per ml. The cells infected in this manner were pipetted into the wells of 96-well microtitre plates in such a manner that each well contained 1×10^4 cells.
The first vertical row of the microtitre plate only contained growth medium and cells which were not infected but otherwise had been treated in the same manner as described above (cell control). The second vertical row of the microtitre plate only contained HIV-infected cells (virus control) in growth medium. […]
The test batches were incubated at 37° C. until the formation of syncytia typical for HIV occurred in the untreated virus control (between day 3 and 6 after infection), which formation was then evaluated under a microscope. […]

For CC(C)[C@H](NC(=O)[C@H](Cc1cccc2ccccc12)CS(=O)(=O)C(C)(C)C)C(=O)N[C@@H](Cc1ccccc1)C(O)CN1CCC2CCCCC2C1C(F)(F)F (some centres unmarked) [Example 11], the IC50 (HIV protease) was 50 nM and the IC50 (HIV) was 2500 nM.
